Counter-ions that a name gives are not always drawn.

One series has as its system COX. The following applies: cited from earlier work.
For series [1] the following is noted: in vivo; cited from earlier work.
The nature of series [2]: Drug excipient compatibility: XRPD. The series is classed as physicochemical. The following applies: 40° C./75% RH, four weeks. Here is the method:
A non-cGMP drug excipient compatibility study for eflornithine HCl/sulindac combination tablet was conducted. Appearance, HPLC Assay and XRPD properties were evaluated using a series of samples. The excipients that were tested included PVP, HPMC, lactose, EXPLOTAB™, Ac-Di-Sol®, PROSOLV®, STARCH 1500®, and OPADRY® Yellow. […] Total mass of most samples was approximately 750 mg. Preparation involved weigh off of components into 20cc scintillation vials, closed and vortexed for approximately 30 seconds. The samples were then stored in a 40° C./75% RH stability chamber for four weeks. Lids on the vials were loosely secured and were protected from light while stored in the chamber. XRPD analysis was conducted on a Bruker AXS D8 Advance system with a Bragg-Brentano configuration using the CuKα radiation. Samples were analyzed at room temperature using the following parameters: 40 kV, 40 mA, 1° divergence and antiscatter slits, a method measuring in continuous mode from 2-40°2Θ with a 0.05° step and 1 second/step time. Between 3 and 25 mg of sample was analyzed using a rotating, top-filled steel sample holder in a nine-position auto-sampler accessory. The system was calibrated using traceable standards.

Series [3] is described as follows: Drug excipient compatibility: appearance and HPLC assay. It counts as physicochemical. The following applies: 40° C./75% RH, four weeks. Here is the method:
A non-cGMP drug excipient compatibility study for eflornithine HCl/sulindac combination tablet was conducted. Appearance, HPLC Assay and XRPD properties were evaluated using a series of samples. The excipients that were tested included PVP, HPMC, lactose, EXPLOTAB™, Ac-Di-Sol®, PROSOLV®, STARCH 1500®, and OPADRY® Yellow. […] Total mass of most samples was approximately 750 mg. Preparation involved weigh off of components into 20cc scintillation vials, closed and vortexed for approximately 30 seconds. The samples were then stored in a 40° C./75% RH stability chamber for four weeks. Lids on the vials were loosely secured and were protected from light while stored in the chamber. Appearance observations were conducted by visual examination of the vials prepared for HPLC analysis. […] Excipient compatibility samples were analyzed using a method capable of detecting both actives, cflornithine and sulindac (FIG. 4A). The method employs a gradient reverse phase HPLC with Ultraviolet (UV) detection at 195 nm.

The subject of a further series is tumor putrescine levels. The note with it: eflornithine infusion, without suppressing peripheral platelet counts; cited from earlier work.
Series [4] relates to tumors harboring Ki-ras mutations. The following applies: reduced from 90%; cited from earlier work.
For series [5], the system named is prostoglandin E2 (PGE2) levels in flat mucosa. The note with it: 300 mg/day, one month; cited from earlier work.
The conditions of series [6]: cited from earlier work.
For series [7] the following is noted: in vivo; cited from earlier work. The source holds these as a separate data set.

Take `CC1=C(CC(=O)O)c2cc(F)ccc2/C1=C\c1ccc(S(C)(=O)=O)cc1` [Sulindac sulfone]: the COX-inhibitory activity entry with COX is “lacks COX-inhibitory activity”.

For `Cc1ccc(-c2cc(C(F)(F)F)nn2-c2ccc(S(N)(=O)=O)cc2)cc1` [celecoxib, 4-[5-(4-Methylphenyl)-3-(trifluoromethyl)pyrazol-1-yl]benzenesulfonamide], in series [1], the “Increase in rates of heart and blood vessel disease” value was 30%; the “Risks of gastrointestinal side effects” value is given as “greater than 80%”.

Take `NCCCC(N)(C(=O)O)C(F)F` (stereo not drawn) [eflornithine HCl]: the “Compatibility with excipients (XRPD)” value in series [2] is reported as “compatible with the potential excipients”. Further, in [3], the “Compatibility with excipients (appearance, HPLC assay)” value is listed as “compatible with the potential excipients”.

For `NCCCC(N)(C(=O)O)C(F)F` (stereo not drawn) [eflornithine, 2,5-diamino-2-(difluoromethyl)pentanoic acid], in the series with tumor putrescine levels, the “Decrease in tumor putrescine levels” value is listed as 90%. Besides, the “Tumors harboring Ki-ras mutations” value in series [4] is 36%.

For `CC(C)Cc1ccc(C(C)C(=O)O)cc1` (stereo not drawn) [ibuprofen], the “PGE2 levels in flat mucosa” value in [5] is reported as “significant decrease”.

On to `CN1C(C(=O)Nc2ccccn2)=C(O)c2ccccc2S1(=O)=O` [piroxicam, 4-hydroxy-2-methyl-N-2-pyridyl-2H-1,2-benzothiazine-3-carboxamide 1,1-dioxide], for which the “Tumors harboring Ki-ras mutations” value in series [4] is 25%.

Turning to `CC1=C(CC(=O)O)c2cc(F)ccc2/C1=C\c1ccc([S+](C)[O-])cc1` (stereo not drawn) [sulindac, (Z)-5-fluoro-2-methyl-1-((4-(methylsulfinyl)phenyl)methylene)-1H-indene-3-acetic acid], in series [6] (after oral administration), the “Fraction of the drug absorbed” value is on record as “about 90%”. Moreover, the “Time to peak plasma levels” value in series [6] (fasting patients) is given as “about 2 hours”. Besides, the “Compatibility with excipients (XRPD)” value in [2] is given as “compatible with the potential excipients”. Moreover, the “Compatibility with excipients (appearance, HPLC assay)” value in series [3] is reported as “compatible with the potential excipients”. Further, in series [7], the “Mild gastrointestinal effects, patients affected” value is on record as roughly 20%; the “Skin rash and pruritus, patients affected” value is 5%.

The record behind these values is patent publication US12350246B2 (Cancer Prevention Pharmaceuticals, Inc., priority 2015, dated 2025).
